Experimental data as given in PubChem BioAssay AID328 (DTP/NCI, 2004).
Where “and” joins values, the source holds several entries; their conditions need not be identical. Equal entries are not always repeated. Toxic doses and inconclusive results are not listed.

Tested on: BDF1 mice, P388 leukemia ip, median survival T/C
Experiment: NCI In Vivo Anticancer Drug Screen. Data for tumor model P388 Leukemia (intraperitoneal) in B6D2F1 (BDF1) mice
Conditions: endpoint: median survival time, higher = longer survival
Method in brief: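 Vehicle-dosed animals serve as the reference; survival of compound-dosed, tumour-implanted mice is divided by it.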

[1] = dose: 25.0 mg/kg/injection, schedule: Q01DX009 (ip), vehicle: Klucel (hydroxypropylcellulose) (HPC)
[2] = dose: 50.0 mg/kg/injection, schedule: Q01DX009 (ip), vehicle: Klucel (hydroxypropylcellulose) (HPC)
[3] = dose: 100.0 mg/kg/injection, schedule: Q01DX009 (ip), vehicle: saline with Tween-80
[4] = dose: 100.0 mg/kg/injection, schedule: Q01DX009 (ip), vehicle: Klucel (hydroxypropylcellulose) (HPC)
[5] = dose: 100.0 mg/kg/injection, schedule: Q04DX003 (ip), vehicle: Klucel (hydroxypropylcellulose) (HPC)
[6] = dose: 12.5 mg/kg/injection, schedule: Q01DX009 (ip), vehicle: saline with Tween-80
[7] = dose: 25.0 mg/kg/injection, schedule: Q01DX009 (ip), vehicle: saline with Tween-80
[8] = dose: 25.0 mg/kg/injection, schedule: Q01DX009 (ip), vehicle: saline
[9] = dose: 50.0 mg/kg/injection, schedule: Q01DX009 (ip), vehicle: saline
[10] = dose: 100.0 mg/kg/injection, schedule: Q01DX009 (ip), vehicle: saline
[11] = dose: 25.0 mg/kg/injection, schedule: Q04DX003 (ip), vehicle: saline with Tween-80
[12] = dose: 50.0 mg/kg/injection, schedule: Q01DX009 (ip), vehicle: saline with Tween-80
[13] = dose: 50.0 mg/kg/injection, schedule: Q04DX003 (ip), vehicle: saline with Tween-80
[14] = dose: 100.0 mg/kg/injection, schedule: Q04DX003 (ip), vehicle: saline with Tween-80
[15] = dose: 12.5 mg/kg/injection, schedule: Q01DX009 (ip), vehicle: Klucel (hydroxypropylcellulose) (HPC)

O=C(CCl)Nc1cc(Cl)ccc1N1CCCC1
T/C (dose: 12.5 mg/kg/injection, schedule: Q01DX001 (ip), vehicle: Klucel (hydroxypropylcellulose) (HPC)): 118 % of control
T/C (dose: 12.5 mg/kg/injection, schedule: Q04DX003 (ip), vehicle: Klucel (hydroxypropylcellulose) (HPC)): 90 % of control
T/C (dose: 25.0 mg/kg/injection, schedule: Q01DX001 (ip), vehicle: Klucel (hydroxypropylcellulose) (HPC)): 104 % of control
T/C [1]: 95 % of control
T/C (dose: 25.0 mg/kg/injection, schedule: Q04DX003 (ip), vehicle: Klucel (hydroxypropylcellulose) (HPC)): 104 % of control
T/C (dose: 50.0 mg/kg/injection, schedule: Q01DX001 (ip), vehicle: Klucel (hydroxypropylcellulose) (HPC)): 104 % of control
T/C [2]: 90 % of control
T/C (dose: 50.0 mg/kg/injection, schedule: Q04DX003 (ip), vehicle: Klucel (hydroxypropylcellulose) (HPC)): 104 % of control
T/C (dose: 75.0 mg/kg/injection, schedule: Q01DX001 (ip), vehicle: Klucel (hydroxypropylcellulose) (HPC)): 95 % of control
T/C (dose: 115.0 mg/kg/injection, schedule: Q01DX001 (ip), vehicle: Klucel (hydroxypropylcellulose) (HPC)): 95 % of control

O=C(O)CCc1cccnc1
T/C [3]: 104 % of control

CC(=O)Nc1c([N+](=O)[O-])ccc(Cl)c1Cl
T/C [1]: 104 % of control
T/C [2]: 87 % of control
T/C [4]: 100 % of control
T/C [5]: 100 % of control

CC1=CC(=NC(=O)CBr)C=C/C1=N\S(=O)(=O)c1ccccc1
T/C (dose: 6.25 mg/kg/injection, schedule: Q01DX009 (ip), vehicle: saline with Tween-80): 113 % of control
T/C [6]: 111 % of control
T/C [7]: 106 % of control

Cc1nnc(NC(=O)CCl)s1
T/C [8]: 95 % of control and 100 % of control and 113 % of control
T/C (dose: 35.0 mg/kg/injection, schedule: Q01DX009 (ip), vehicle: saline): 113 % of control
T/C [9]: 100 % of control
T/C [4]: 106 % of control
T/C [10]: 100 % of control and 105 % of control
T/C (dose: 200.0 mg/kg/injection, schedule: Q01DX009 (ip), vehicle: Klucel (hydroxypropylcellulose) (HPC)): 111 % of control

NC(CSCc1ccccc1)CSCc1ccccc1
T/C (dose: 0.78 mg/kg/injection, schedule: Q04DX003 (ip), vehicle: saline): 99 % of control
T/C (dose: 1.56 mg/kg/injection, schedule: Q04DX003 (ip), vehicle: saline): 86 % of control and 91 % of control
T/C (dose: 6.25 mg/kg/injection, schedule: Q01DX009 (ip), vehicle: saline): 107 % of control
T/C (dose: 6.25 mg/kg/injection, schedule: Q04DX003 (ip), vehicle: saline): 99 % of control and 104 % of control
T/C (dose: 12.5 mg/kg/injection, schedule: Q01DX009 (ip), vehicle: saline): 109 % of control
T/C (dose: 12.5 mg/kg/injection, schedule: Q04DX003 (ip), vehicle: saline): 94 % of control and 95 % of control and 100 % of control
T/C [8]: 118 % of control
T/C (dose: 25.0 mg/kg/injection, schedule: Q04DX003 (ip), vehicle: saline): 99 % of control and 100 % of control and 120 % of control
T/C [9]: 109 % of control
T/C (dose: 50.0 mg/kg/injection, schedule: Q04DX003 (ip), vehicle: saline): 104 % of control
T/C [10]: 109 % of control

Nc1ccc(S(=O)(=O)Nc2ccc([N+](=O)[O-])cc2)cc1
T/C [6]: 87 % of control
T/C [7]: 96 % of control and 105 % of control
T/C [11]: 102 % of control
T/C [12]: 89 % of control
T/C [13]: 99 % of control
T/C [3]: 87 % of control and 93 % of control
T/C [14]: 105 % of control
T/C (dose: 200.0 mg/kg/injection, schedule: Q04DX003 (ip), vehicle: saline with Tween-80): 112 % of control
T/C (dose: 400.0 mg/kg/injection, schedule: Q04DX003 (ip), vehicle: saline with Tween-80): 114 % of control

OCCN(CCO)c1cc(/C=C/c2cccc3ccccc23)nc2ccccc12
T/C (dose: 50.0 mg/kg/injection, schedule: Q01DX009 (ip), vehicle: saline + alcohol): 100 % of control
T/C (dose: 100.0 mg/kg/injection, schedule: Q01DX009 (ip), vehicle: saline + alcohol): 100 % of control
T/C (dose: 200.0 mg/kg/injection, schedule: Q01DX009 (ip), vehicle: saline + alcohol): 103 % of control

NC1=C(N2CC2)C(=O)C(N)=C(N2CC2)C1=O
T/C (dose: 100.0 micrograms/kg/injection, schedule: Q01DX009 (ip), vehicle: saline): 178 % of control

COc1ccc(CC(=O)NCCc2ccccc2)cc1OC
T/C [6]: 112 % of control
T/C (dose: 12.5 mg/kg/injection, schedule: Q04DX003 (ip), vehicle: saline with Tween-80): 100 % of control
T/C [7]: 104 % of control
T/C [11]: 100 % of control
T/C [12]: 110 % of control
T/C [13]: 109 % of control
T/C [14]: 99 % of control and 100 % of control

CN(N)c1cc(=O)n(C)c(=O)n1C
T/C (dose: 100.0 mg/kg/injection, schedule: Q04DX003 (ip), vehicle: saline): 110 % of control
T/C (dose: 200.0 mg/kg/injection, schedule: Q04DX003 (ip), vehicle: saline): 103 % of control
T/C (dose: 400.0 mg/kg/injection, schedule: Q04DX003 (ip), vehicle: saline): 101 % of control

O=C1OCC/C1=C1/Nc2ccccc2NC1=O
T/C [6]: 105 % of control
T/C [7]: 100 % of control
T/C [12]: 96 % of control

CC(=O)Nc1ccc2c(c1)Cc1cc(NC=O)ccc1-2
T/C (dose: 0.75 mg/kg/injection, schedule: Q01DX009 (ip), vehicle: Klucel (hydroxypropylcellulose) (HPC)): 89 % of control
T/C (dose: 3.0 mg/kg/injection, schedule: Q01DX009 (ip), vehicle: Klucel (hydroxypropylcellulose) (HPC)): 92 % of control
T/C [15]: 96 % of control
T/C [4]: 91 % of control
T/C [5]: 87 % of control

NC(N)=N/N=C\c1c2ccccc2cc2ccccc12
T/C (dose: 3.13 mg/kg/injection, schedule: Q01DX009 (ip), vehicle: other): 155 % of control
T/C (dose: 6.25 mg/kg/injection, schedule: Q01DX009 (ip), vehicle: other): 155 % of control
T/C (dose: 12.5 mg/kg/injection, schedule: Q01DX009 (ip), vehicle: other): 157 % of control

NCCCCNC(=O)c1csc(-c2csc(CCNC(=O)c3ccccc3)n2)n1
T/C (dose: 8.0 mg/kg/injection, schedule: Q01DX009 (ip), vehicle: saline): 100 % of control
T/C (dose: 16.0 mg/kg/injection, schedule: Q01DX009 (ip), vehicle: saline): 100 % of control
T/C (dose: 32.0 mg/kg/injection, schedule: Q01DX009 (ip), vehicle: saline): 100 % of control
T/C (dose: 64.0 mg/kg/injection, schedule: Q01DX009 (ip), vehicle: saline): 110 % of control

[Cl][Rh][Cl].c1cn[nH]c1.c1cn[nH]c1.c1cn[nH]c1.c1cn[nH]c1
T/C [15]: 114 % of control
T/C [1]: 94 % of control

CCOC(=O)c1[nH]cnc1/N=N/N(C)CCO
T/C (dose: 14.0 mg/kg/injection, schedule: Q01DX009 (ip), vehicle: saline): 104 % of control
T/C (dose: 21.0 mg/kg/injection, schedule: Q01DX009 (ip), vehicle: saline): 100 % of control
T/C (dose: 66.0 mg/kg/injection, schedule: Q01DX009 (ip), vehicle: saline): 115 % of control
T/C (dose: 264.0 mg/kg/injection, schedule: Q01DX009 (ip), vehicle: saline with Tween-80): 113 % of control
T/C (dose: 600.0 mg/kg/injection, schedule: Q01DX009 (ip), vehicle: saline with Tween-80): 118 % of control
T/C (dose: 600.0 mg/kg/injection, schedule: Q01DX009 (ip), vehicle: saline): 163 % of control

COc1cc2ccc3c(c2cc1OC)CN(Cc1ccccc1)CC3
T/C [5]: 100 % of control
T/C (dose: 200.0 mg/kg/injection, schedule: Q04DX003 (ip), vehicle: Klucel (hydroxypropylcellulose) (HPC)): 109 % of control
T/C (dose: 400.0 mg/kg/injection, schedule: Q04DX003 (ip), vehicle: Klucel (hydroxypropylcellulose) (HPC)): 100 % of control

Cc1ccc2c(C)c3ccc4ccccc4c3c[n+]2c1
T/C (dose: 20.0 mg/kg/injection, schedule: Q04DX003 (ip), vehicle: saline): 118 % of control
T/C (dose: 40.0 mg/kg/injection, schedule: Q04DX003 (ip), vehicle: saline): 118 % of control
